Results from paper PMC10797628.
Where two headings read alike, the source gives them in different places.

Experiments:
human 5-HT1D receptor [1] = target: T1, human 5-HT1D receptor (Homo sapiens, UniProt P28221); test: cAMP accumulation (LANCE Ultra TR-FRET) in HEK293T cells, WT 5-HT1D; type: cell-based; conditions: for EC50: cAMP accumulation, HEKt cells, mean ± SD; for Emax: HEK-293T
T1 construct: host or cells: HEK293T
Description: (§1) Briefly, cells transfected with the desired receptor construct and compounds were incubated in the dark for 90 min at 37 °C. After incubation, cAMP detection reagents were added, and TR-FRET was used to quantify the cAMP produced.
(§2) The functional activity of compounds was determined by stimulating cells expressing the desired receptor with FSK and test compound in parallel with 12 known concentrations of cAMP. The known concentrations of cAMP were used to create a standard curve for each experiment that was used to interpolate the unknown values of cAMP in wells with test compounds. […] The EC50 and EMAX values were determined using the “dose response – log[agonist] vs response (three parameter)” nonlinear regression model in Prism and transformed to pEC50 values, reported as mean ± SD.
(§3) Summary of functional assay conditions at various 5-HT1 receptor point mutation constructs.

human 5-HT1A receptor [2] = target: T2, human 5-HT1A receptor (Homo sapiens, UniProt P08908); test: cAMP accumulation (LANCE Ultra TR-FRET) in HEK293T cells, WT 5-HT1A; type: cell-based; conditions: for EC50: cAMP accumulation, HEKt cells, mean ± SD; for Emax: HEK-293T
T2 construct: host or cells: HEK293T
T2 sequence (P08908 1-422): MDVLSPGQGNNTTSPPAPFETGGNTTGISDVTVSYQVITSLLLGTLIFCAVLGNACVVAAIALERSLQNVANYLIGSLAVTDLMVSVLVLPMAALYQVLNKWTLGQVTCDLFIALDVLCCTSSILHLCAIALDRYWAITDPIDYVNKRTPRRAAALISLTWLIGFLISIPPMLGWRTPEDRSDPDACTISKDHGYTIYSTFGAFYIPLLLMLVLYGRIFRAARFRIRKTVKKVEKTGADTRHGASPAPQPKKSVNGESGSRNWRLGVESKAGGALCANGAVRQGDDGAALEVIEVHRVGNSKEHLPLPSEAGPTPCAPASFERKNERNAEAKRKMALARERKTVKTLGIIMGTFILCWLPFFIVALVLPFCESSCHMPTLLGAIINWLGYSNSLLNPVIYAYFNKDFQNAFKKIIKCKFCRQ
Description: as §1, §2, §3

human 5-HT1B receptor [3] = target: T3, human 5-HT1B receptor (Homo sapiens, UniProt P28222); test: cAMP accumulation (LANCE Ultra TR-FRET) in HEK293T cells, WT 5-HT1B; type: cell-based; conditions: for EC50: cAMP accumulation, HEKt cells, mean ± SD; for Emax: HEK-293T
T3 construct: host or cells: HEK293T
T3 sequence (P28222 whole entry): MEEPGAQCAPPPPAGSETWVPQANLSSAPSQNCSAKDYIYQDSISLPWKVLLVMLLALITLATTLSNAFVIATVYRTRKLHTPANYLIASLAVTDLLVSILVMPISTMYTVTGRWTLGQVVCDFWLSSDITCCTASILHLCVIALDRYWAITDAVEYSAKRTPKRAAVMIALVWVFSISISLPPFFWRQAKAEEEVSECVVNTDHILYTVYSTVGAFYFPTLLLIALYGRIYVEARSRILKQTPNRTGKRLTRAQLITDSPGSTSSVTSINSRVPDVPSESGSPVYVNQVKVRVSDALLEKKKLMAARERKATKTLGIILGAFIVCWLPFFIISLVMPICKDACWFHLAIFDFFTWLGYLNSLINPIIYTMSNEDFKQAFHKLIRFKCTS
Description: as §1, §2, §3

human 5-HT1D receptor [4] = target: T1, human 5-HT1D receptor; test: Radioligand binding (saturation and competition), WT 5-HT1D
human 5-HT1B receptor [5] = target: T3, human 5-HT1B receptor; test: Radioligand binding (saturation and competition), WT 5-HT1B
human 5-HT1F receptor = target: T4, human 5-HT1F receptor (Homo sapiens, UniProt P30939); test: Radioligand binding (saturation and competition), WT 5-HT1F
T4 construct: host or cells: HEK293T
T4 sequence (P30939 1-366): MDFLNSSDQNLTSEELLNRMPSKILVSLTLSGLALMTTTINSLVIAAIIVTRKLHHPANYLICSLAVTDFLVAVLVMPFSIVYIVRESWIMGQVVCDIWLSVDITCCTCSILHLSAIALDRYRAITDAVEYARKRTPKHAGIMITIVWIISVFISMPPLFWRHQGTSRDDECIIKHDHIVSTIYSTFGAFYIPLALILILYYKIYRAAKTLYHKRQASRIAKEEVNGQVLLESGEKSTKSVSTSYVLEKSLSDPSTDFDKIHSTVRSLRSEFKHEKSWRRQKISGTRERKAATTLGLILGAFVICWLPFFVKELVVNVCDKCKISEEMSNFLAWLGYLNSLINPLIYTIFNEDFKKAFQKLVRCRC

human 5-HT1A receptor [6] = target: T2, human 5-HT1A receptor; test: Radioligand binding (saturation and competition), WT 5-HT1A
[7] = WT receptor, normalized to basal (0%) and 10 μM 5-CT (100%)
[8] = Affinity (pKi ± SD) 5-HT1D, WT receptor, [^3H]5-CT competition, mean ± SD
[9] = Affinity (pKi ± SD) 5-HT1B, WT receptor, [^3H]5-CT competition, mean ± SD
[10] = Affinity (pKi ± SD) 5-HT1A, WT receptor, [^3H]5-CT competition, mean ± SD
[11] = read-out: 5-HT1D EMAX (%), WT receptor, normalized to basal (0%) and 10 μM 5-CT (100%)
[12] = read-out: 5-HT1B EMAX (%), WT receptor, normalized to basal (0%) and 10 μM 5-CT (100%)
[13] = read-out: Affinity (pKi ± SD) 5-HT1D (converted)
[14] = WT receptor, read-out: 5-HT1D pEC50 (converted)

T1 sequence (P28221 whole entry): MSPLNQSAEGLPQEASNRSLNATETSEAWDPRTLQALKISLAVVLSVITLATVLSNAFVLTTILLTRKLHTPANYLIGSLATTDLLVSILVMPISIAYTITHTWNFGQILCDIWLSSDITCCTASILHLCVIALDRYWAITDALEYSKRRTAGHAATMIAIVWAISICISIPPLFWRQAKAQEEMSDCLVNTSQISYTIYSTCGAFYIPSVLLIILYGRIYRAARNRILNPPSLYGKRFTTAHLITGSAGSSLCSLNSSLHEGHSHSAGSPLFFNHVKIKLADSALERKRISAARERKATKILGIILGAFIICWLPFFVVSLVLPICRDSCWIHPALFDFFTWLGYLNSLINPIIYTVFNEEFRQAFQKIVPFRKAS

Row | Compound | Ki (human 5-HT1D receptor [4]; [8]) | Ki (human 5-HT1B receptor [5]; [9]) | Ki (human 5-HT1F receptor) | Ki (human 5-HT1A receptor [6]; [10]) | other results
1 | CCCN(CCC)[C@@H]1CCc2cccc(O)c2C1 [(R)-8-OH-DPAT, 8-hydroxy-N,N-dipropyl-1,2,3,4-tetrahydronaphthalen-2-amine, reference compound] |  |  |  |  | 5-HT1D EMAX (%) (human 5-HT1D receptor [1]; [7]): 96 ± 2%; 5-HT1A EMAX (%) (human 5-HT1A receptor [2]; [7]): 95 ± 4%; 5-HT1B EMAX (%) (human 5-HT1B receptor [3]; [7]): 87 ± 4%
2 | CN(C)[C@@H]1CCc2c(cccc2-c2ccccc2F)C1 [(R)-FPT] | 912 nM | 240 nM | > 10 µM |  | 
3 | CN(C)[C@H]1CCc2c(cccc2-c2ccccc2Cl)C1 [(S)-CPT] | 0.447 nM | 0.891 nM | > 10 µM | 5.75 nM | EC50 (human 5-HT1D receptor [1]; 5-HT1D pEC50, WT receptor): 2.24 nM; Emax (human 5-HT1D receptor [1]; [11]): 101 ± 1%; EC50 (human 5-HT1A receptor [2]; 5-HT1A pEC50, WT receptor): 43.7 nM; Emax (human 5-HT1A receptor [2]; read-out: 5-HT1A EMAX (%), WT receptor, normalized to basal (0%) and 10 μM 5-CT (100%)): 91 ± 2%; EC50 (human 5-HT1B receptor [3]; 5-HT1B pEC50, WT receptor): 0.347 nM; Emax (human 5-HT1B receptor [3]; [12]): > 90%; 5-HT1B EMAX (%) (human 5-HT1B receptor [3]; [7]): 100 ± 1%
4 | CN(C)[C@H]1CCc2c(cccc2-c2cccc3c2oc2ccccc23)C1 [DBZ, (S)-5-(Dibenzo[b,d]furan-4-yl)-N,N-dimethyl-1,2,3,4-tetrahydronaphthalen-2-amine] |  |  |  |  | Ki (human 5-HT1A receptor [6]; read-out: Affinity (pKi ± SD) 5-HT1A (converted)): 309 nM; Ki (human 5-HT1D receptor [4]; [13]): 4.79 nM; Ki (human 5-HT1B receptor [5]; read-out: Affinity (pKi ± SD) 5-HT1B (converted)): 69.2 nM; Emax (human 5-HT1D receptor [1]; read-out: 5-HT1D EMAX (%)): 99 ± 2%; EC50 (human 5-HT1D receptor [1]; [14]): 4.37 nM; Emax (human 5-HT1A receptor [2]; read-out: 5-HT1A EMAX (%)): 93 ± 4%; EC50 (human 5-HT1A receptor [2]; WT receptor, read-out: 5-HT1A pEC50 (converted)): 813 nM; Emax (human 5-HT1B receptor [3]; read-out: 5-HT1B EMAX (%)): 93 ± 2%; EC50 (human 5-HT1B receptor [3]; WT receptor, read-out: 5-HT1B pEC50 (converted)): 64.6 nM
5 | CN(C)[C@@H]1CCc2c(cccc2-c2cccn2C)C1 [(R)-NMP] | 316 nM | 339 nM | > 10 µM |  | Affinity (pKi ± SD) 5-HT1A (human 5-HT1A receptor [6]; WT receptor, [^3H]5-CT competition, mean ± SD): 6.26 ± 0.03
6 | CN(C)[C@@H]1CCc2c(cccc2-c2ccco2)C1 [(R)-FAT] | 214 nM | 550 nM | > 10 µM | 537 nM | 
7 | CN(C)[C@@H]1CCc2c(cccc2-c2ccccc2)C1 [(R)-5-PAT] | 282 nM | 1320 nM | > 10 µM | 1050 nM | 
8 | CN(C)[C@@H]1CCc2c(cccc2-c2cccs2)C1 [(R)-TAT] | 813 nM | 3160 nM | > 10 µM | 1510 nM | 
9 | CN(C)[C@@H]1CCc2c(cccc2-c2cccc3ccccc23)C1 [(R)-NAP] | 107 nM | 155 nM | > 10 µM | 263 nM | 
10 | CCCN(CCC)[C@H]1CCc2cccc(O)c2C1 [(S)-8-OH-DPAT, 8-hydroxy-N,N-dipropyl-1,2,3,4-tetrahydronaphthalen-2-amine, reference compound] |  |  | > 10 µM |  | Emax (human 5-HT1D receptor [1]; [11]): 94 ± 2%; 5-HT1A EMAX (%) (human 5-HT1A receptor [2]; [7]): 70 ± 3%; Emax (human 5-HT1B receptor [3]; [12]): 85 ± 3%
11 | CN(C)[C@@H]1CCc2c(cccc2-c2ccccc2Cl)C1 [(R)-CPT] | 417 nM | 72.4 nM | > 10 µM | 2140 nM | 
12 | O=C1CC2(CCCC2)CC(=O)N1CCCCN1CCN(c2ncccn2)CC1 [Buspirone, buspirone, reference compound] |  |  |  |  | Ki (human 5-HT1D receptor [4]; [13]): 617 nM; Ki (human 5-HT1F receptor; WT receptor, [^3H]5-HT competition, mean ± SD, read-out: Affinity (pKi ± SD) 5-HT1F (converted)): > 10 µM; Emax (human 5-HT1D receptor [1]; read-out: 5-HT1D EMAX (%)): 50 ± 3%; EC50 (human 5-HT1D receptor [1]; [14]): > 10000 nM; Emax (human 5-HT1A receptor [2]; read-out: 5-HT1A EMAX (%)): 75 ± 1%; Emax (human 5-HT1B receptor [3]; read-out: 5-HT1B EMAX (%)): 45 ± 3%
